Measured values as given in ChEMBL document CHEMBL1201862, “PubChem BioAssay data set” (2004).
Calls of active or inactive are those of the source.

Experiments:
[1] = target: T1, Phospholipase D2 (Homo sapiens, UniProt O14939); assay: cellular phospholipase D2 inhibition IC50 – cell-based, dose response (AID 602147); assay type: functional;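 also: cellular assay in HEK293 cells overexpressing GFP-tagged PLD2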
[2] = target: T2, Phospholipase D1 (Homo sapiens, UniProt Q13393); assay: cellular phospholipase D1 inhibition IC50 – cell-based, dose response (AID 602151); assay type: functional;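 also: cellular PLD1 assay in Calu-1 cells stimulated with PMA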
T2 sequence (Q13393 whole entry): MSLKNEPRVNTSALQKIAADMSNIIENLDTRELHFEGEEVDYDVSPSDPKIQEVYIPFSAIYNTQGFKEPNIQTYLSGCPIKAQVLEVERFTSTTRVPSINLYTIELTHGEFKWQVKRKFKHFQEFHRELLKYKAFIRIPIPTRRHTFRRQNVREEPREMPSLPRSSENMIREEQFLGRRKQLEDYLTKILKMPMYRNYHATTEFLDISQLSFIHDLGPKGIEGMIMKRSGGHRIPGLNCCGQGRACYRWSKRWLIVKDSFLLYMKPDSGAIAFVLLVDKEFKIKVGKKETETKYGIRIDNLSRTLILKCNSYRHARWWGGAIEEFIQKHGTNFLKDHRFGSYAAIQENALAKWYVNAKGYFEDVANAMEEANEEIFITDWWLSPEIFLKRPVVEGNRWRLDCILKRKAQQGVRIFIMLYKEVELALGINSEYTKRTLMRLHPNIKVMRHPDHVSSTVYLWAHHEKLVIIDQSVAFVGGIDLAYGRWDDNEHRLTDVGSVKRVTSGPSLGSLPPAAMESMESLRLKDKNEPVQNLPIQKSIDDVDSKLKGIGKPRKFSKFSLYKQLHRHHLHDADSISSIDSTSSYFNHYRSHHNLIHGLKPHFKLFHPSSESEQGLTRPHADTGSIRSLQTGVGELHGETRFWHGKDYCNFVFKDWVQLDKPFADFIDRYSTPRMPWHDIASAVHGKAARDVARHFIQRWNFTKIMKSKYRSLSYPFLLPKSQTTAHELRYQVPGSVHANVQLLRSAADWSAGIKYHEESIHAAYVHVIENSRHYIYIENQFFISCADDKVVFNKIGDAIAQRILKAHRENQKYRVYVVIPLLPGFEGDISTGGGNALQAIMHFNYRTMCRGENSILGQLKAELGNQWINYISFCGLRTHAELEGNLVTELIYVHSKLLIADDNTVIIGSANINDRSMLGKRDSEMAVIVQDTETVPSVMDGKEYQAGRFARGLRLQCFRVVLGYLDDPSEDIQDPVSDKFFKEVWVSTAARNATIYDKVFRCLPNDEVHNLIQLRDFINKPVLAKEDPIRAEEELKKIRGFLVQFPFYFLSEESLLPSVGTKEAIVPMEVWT

[3] = target: Large T antigen (Simian virus 40, UniProt P03070); assay type: functional, Betapolyomavirus macacae;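 also: Confirmatory-stage PubChem screen for compounds that inhibit SV40 T antigen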
[4] = target: Procathepsin L (Homo sapiens, UniProt P07711)
[5] = target: T3, Aspartyl aminopeptidase (Plasmodium falciparum 3D7, UniProt Q8I2J3)
T3 sequence (Q8I2J3 whole entry): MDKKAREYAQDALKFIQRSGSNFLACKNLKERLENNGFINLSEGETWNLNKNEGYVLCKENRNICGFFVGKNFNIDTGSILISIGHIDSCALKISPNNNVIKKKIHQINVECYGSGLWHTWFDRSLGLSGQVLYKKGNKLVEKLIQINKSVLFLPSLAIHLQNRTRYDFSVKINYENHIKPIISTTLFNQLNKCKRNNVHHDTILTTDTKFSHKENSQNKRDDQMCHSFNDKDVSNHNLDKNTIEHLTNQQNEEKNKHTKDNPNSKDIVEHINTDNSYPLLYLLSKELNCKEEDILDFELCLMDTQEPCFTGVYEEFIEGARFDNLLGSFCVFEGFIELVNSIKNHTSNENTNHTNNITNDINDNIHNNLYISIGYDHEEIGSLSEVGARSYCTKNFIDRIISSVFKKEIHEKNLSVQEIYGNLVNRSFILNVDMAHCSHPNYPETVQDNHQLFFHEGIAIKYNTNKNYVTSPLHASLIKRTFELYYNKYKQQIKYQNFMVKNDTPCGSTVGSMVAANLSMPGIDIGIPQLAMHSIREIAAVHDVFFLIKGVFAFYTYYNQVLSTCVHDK

[6] = target: Oxytocin receptor (Homo sapiens, UniProt P30559); assay: Fluorescence-based cell-based high throughput dose response assay for potentiators of Oxytocin Receptor (OXTR). [Related pubchem assays: 434985 (Confirmation screen (OXTR potentiators in triplicate)), 2481 (Summary (OXTR potentiators)), 2445 (Primary screen (OXTR potentiators in singlicate))]; assay type: functional
Chain of Oxytocin receptor (P30559 whole entry): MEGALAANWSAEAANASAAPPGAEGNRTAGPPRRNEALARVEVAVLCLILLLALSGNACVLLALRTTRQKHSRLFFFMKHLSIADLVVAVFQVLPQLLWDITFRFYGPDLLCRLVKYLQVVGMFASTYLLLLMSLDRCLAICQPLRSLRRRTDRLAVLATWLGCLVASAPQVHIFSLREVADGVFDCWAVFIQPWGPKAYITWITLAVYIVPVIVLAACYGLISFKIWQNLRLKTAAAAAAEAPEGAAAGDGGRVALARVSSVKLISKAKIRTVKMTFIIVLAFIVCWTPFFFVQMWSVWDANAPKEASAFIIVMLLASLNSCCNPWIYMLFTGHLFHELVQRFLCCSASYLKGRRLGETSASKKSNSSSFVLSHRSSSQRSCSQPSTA

[7] = target: Latent membrane protein 1 (Human herpesvirus 4 (strain B95-8), UniProt P03230); assay: LMP1 TES1 pathway selectivity over dsRED control – imaging, HEK293T, dual-color eGFP/dsRED, cherry-picks, selectivity assay for LMP1 NF-kB inhibitor project, dose response (AID 588398); assay type: functional, cell-based
[8] = target: Hexokinase-1 (Homo sapiens, UniProt P19367); assay: SAR analysis of small molecule inhibitors of hexokinase domain containing I (HKDC1) in the hexokinase 1 selectivity assay. [Related pubchem assays (depositor defined):AID493160, AID493190]; assay type: functional
[9] = target: Hexokinase HKDC1 (Homo sapiens, UniProt Q2TB90); assay: SAR analysis of small molecule inhibitors of hexokinase domain containing I (HKDC1). [Related pubchem assays (depositor defined):AID493160, AID493190]; assay type: functional
Chain of Hexokinase HKDC1 (Q2TB90 whole entry, the tested form may be a part): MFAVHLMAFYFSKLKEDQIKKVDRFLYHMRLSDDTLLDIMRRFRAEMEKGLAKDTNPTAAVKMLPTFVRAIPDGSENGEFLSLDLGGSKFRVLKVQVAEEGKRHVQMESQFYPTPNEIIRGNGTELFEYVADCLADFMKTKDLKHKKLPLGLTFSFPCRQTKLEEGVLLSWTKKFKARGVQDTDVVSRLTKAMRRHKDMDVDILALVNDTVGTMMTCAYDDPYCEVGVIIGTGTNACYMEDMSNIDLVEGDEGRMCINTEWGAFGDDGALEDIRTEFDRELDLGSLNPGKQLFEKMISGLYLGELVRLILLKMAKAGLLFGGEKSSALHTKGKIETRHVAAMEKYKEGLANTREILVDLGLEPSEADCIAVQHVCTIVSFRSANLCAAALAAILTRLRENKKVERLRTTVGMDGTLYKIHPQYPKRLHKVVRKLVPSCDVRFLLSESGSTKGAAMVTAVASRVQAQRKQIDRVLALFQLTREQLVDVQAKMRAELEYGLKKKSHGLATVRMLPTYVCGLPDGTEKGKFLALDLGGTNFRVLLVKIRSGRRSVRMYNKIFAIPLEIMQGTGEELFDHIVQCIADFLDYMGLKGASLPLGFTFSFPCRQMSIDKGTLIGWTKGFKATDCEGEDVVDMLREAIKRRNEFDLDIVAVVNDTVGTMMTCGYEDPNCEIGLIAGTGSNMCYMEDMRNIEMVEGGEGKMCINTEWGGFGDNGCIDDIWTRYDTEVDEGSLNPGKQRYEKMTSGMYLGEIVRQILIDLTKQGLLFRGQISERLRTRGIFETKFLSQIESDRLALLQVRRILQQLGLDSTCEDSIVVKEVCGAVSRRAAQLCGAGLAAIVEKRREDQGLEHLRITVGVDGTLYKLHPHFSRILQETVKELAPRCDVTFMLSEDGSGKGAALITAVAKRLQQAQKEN

[10] = target: Nucleotide-binding oligomerization domain-containing protein 2 (Homo sapiens, UniProt Q9HC29); assay: inhibition of NOD2-driven NF-kB reporter – cell-based, luminescence, uHTS, HEK293 (AID 1566); assay type: functional
[11] = PAX5 cellular inhibition readout – cell-based, plate reader, dry powder samples, selectivity assay for PAX8 inhibitor project, dose response (AID 743047); assay type: functional;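 also: HEK293 cells carrying a Pax5 driven CD19 promoter luciferase reporter; potency of inhibitors that lower reporter luminescence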
[12] = OV-90 cell viability loss – plate reader, dry powder, SA8, PAX8 inhibitor project, dose response (AID 743149); assay type: functional, cell-based
[13] = target: Paired box protein Pax-8 (Homo sapiens, UniProt Q06710); assay: PAX8 transcriptional activity inhibition in RMG-I – RMG-I cells, luciferase, cherry-pick, dose response (AID 687027); assay type: functional, cell-based;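 also: luciferase reporter driven by Pax8 target thyroperoxidase promoter measured by SteadyGlo luminescence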
Chain of Paired box protein Pax-8 (Q06710 whole entry): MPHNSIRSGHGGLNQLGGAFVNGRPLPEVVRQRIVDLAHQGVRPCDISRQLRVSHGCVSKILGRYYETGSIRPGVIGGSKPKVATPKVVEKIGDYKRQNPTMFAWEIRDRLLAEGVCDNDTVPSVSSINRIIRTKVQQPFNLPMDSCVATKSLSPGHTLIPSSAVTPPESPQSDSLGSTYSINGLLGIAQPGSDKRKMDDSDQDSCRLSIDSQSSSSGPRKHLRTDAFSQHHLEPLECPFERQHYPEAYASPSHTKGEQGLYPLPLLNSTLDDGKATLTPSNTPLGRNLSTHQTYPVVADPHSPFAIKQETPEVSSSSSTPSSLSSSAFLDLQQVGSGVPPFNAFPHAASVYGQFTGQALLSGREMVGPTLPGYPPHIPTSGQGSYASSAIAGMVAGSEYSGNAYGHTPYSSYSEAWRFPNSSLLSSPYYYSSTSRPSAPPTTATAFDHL

[14] = PAX8-dependent cell viability loss – plate reader, dry powder, dose response (AID 743049); assay type: functional, cell-based
[15] = system: INS1; assay: INS-1E survival protection against cytokine death – cell-based, luminescence, retest, dose response (AID 449756); assay type: functional; details: Rattus norvegicus;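 also: cell death triggered by IL-1 beta plus TNF-alpha plus IFN-gamma mixture; protective hits raise ATP signal compared with cytokine alone wells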
[16] = target: T4, Microphthalmia-associated transcription factor (Homo sapiens, UniProt O75030); assay: reducers of TRPM1 reporter luminescence, concentration series – cell-based, SK-MEL-5, cherry-picked, set 3, MITF inhibitor project, dose response (AID 493073); assay type: functional;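 also: SK-MEL-5 melanoma cells with luciferase driven by the MITF target TRPM1 promoter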
T4 sequence (O75030 whole entry): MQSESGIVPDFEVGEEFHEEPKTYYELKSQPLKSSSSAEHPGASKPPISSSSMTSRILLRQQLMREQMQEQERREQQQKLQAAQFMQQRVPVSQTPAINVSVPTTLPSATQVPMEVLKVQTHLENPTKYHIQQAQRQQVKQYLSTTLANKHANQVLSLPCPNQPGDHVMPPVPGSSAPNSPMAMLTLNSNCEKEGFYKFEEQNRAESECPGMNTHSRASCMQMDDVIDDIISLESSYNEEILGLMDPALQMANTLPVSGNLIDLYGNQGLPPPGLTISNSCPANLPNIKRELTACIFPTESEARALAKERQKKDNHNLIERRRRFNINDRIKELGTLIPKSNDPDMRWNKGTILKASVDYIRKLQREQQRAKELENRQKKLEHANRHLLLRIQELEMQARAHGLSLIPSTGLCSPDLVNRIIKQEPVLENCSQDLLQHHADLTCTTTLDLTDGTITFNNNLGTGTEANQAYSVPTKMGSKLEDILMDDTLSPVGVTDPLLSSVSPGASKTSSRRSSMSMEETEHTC

[17] = viability loss in CEM21 cells – cell-based, CellTiter-Glo luminescence, cherry-picked, cytotoxicity control for viral fusion inhibitor project, dose response (AID 652042); assay type: functional;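 also: potency for signal decrease meaning cytotoxicity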
[18] = system: HEK293; assay: cells; assay type: functional, cell-based; details: Homo sapiens
[19] = inhibitors acting on PAX2 in cells – cell-based, plate reader, dry powder samples, selectivity assay for PAX8 inhibitor project, dose response (AID 743048); assay type: functional;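 also: HEK293 cells carrying a WT1 promoter luciferase reporter driven by expressed Pax2; potency is for inhibition of Pax2 driven reporter signal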
[20] = HIV-1 AD8 envelope cell-cell fusion blockers – cherry-pick, dose response (AID 652062); assay type: functional, cell-based;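 also: luciferase signal from cell-cell fusion driven by HIV-1 clade B AD8 Env; potency is for inhibitors of fusion seen as a drop in luminescence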
[21] = system: HEK293; assay: NOD2 signaling inhibitors in MDP-stimulated cells, cell-based, uHTS, luminescence (AID 2001); assay type: functional; details: Homo sapiens
[22] = system: HEK293; assay: cells; assay type: functional, cell-based; details: Homo sapiens; remark: listed apart in the source
[23] = blockers of HIV-1 envelope-mediated cell-cell fusion – cherry-pick, dose response (AID 652057); assay type: functional, cell-based
[24] = off-target signal loss in HeLa-CEM21 co-culture – HeLa F-luc CTL cells, cherry-picked, counter-screen for HIV-1 Env fusion inhibitor project, dose response (AID 652040); assay type: functional, cell-based;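 also: potency for signal decrease marking cytotoxic or nonspecific inhibition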
[25] = system: HEK293; assay: inhibition of NOD1-driven NF-kB reporter – cell-based, luminescence, uHTS, primary screen (AID 1578); assay type: functional; details: Homo sapiens
[26] = COV434 cell viability loss – plate reader, dry powder, SA7, cytotoxicity control for PAX8 inhibitor project, dose response (AID 743145); assay type: functional, cell-based
[27] = blockers of HIV-1 ZM109 envelope-driven cell-cell fusion – HeLa effector, CEM target cells, luciferase, cherry-pick, dose response (AID 652058); assay type: functional, cell-based;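 also: luciferase signal from HIV-1 Env mediated cell-cell fusion of effector and target cells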
[28] = A2780 cell killing – plate reader, dry powder samples, cytotoxicity control, dose response (AID 743046); assay type: functional, cell-based
[29] = OVCAR-3 cell viability loss – plate reader, dry powder samples, PAX8 inhibitor project, dose response (AID 743044); assay type: functional, cell-based
[30] = system: HEK293; assay: cells; assay type: functional, cell-based; details: Homo sapiens; remark: listed apart in the source
[31] = system: A-375; assay: proliferation inhibition in MITF-low A375 cells – cell-based, cherry-pick samples, set 2, counter-screen for MITF modulator project, dose response (AID 540335); assay type: functional; details: Homo sapiens
[32] = target: Beta-2 adrenergic receptor (Homo sapiens, UniProt P07550); assay: ADRB2 activation measured by internalization – cell-based, FAP fluorogen, flow cytometry, cherry pick 1, dose response (AID 588763); assay type: functional
Chain of Beta-2 adrenergic receptor (P07550 whole entry): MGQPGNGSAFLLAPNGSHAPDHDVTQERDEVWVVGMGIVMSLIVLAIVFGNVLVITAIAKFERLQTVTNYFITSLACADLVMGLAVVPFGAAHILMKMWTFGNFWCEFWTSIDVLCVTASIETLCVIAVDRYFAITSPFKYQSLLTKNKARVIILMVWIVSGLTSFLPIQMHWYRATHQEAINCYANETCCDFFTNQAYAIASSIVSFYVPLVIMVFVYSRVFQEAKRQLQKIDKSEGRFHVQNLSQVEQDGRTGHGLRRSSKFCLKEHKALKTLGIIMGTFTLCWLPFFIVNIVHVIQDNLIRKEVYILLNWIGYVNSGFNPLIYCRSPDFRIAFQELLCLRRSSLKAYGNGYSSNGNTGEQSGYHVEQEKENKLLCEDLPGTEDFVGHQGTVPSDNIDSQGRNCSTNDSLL

[33] = target: Luciferin 4-monooxygenase (Photinus pyralis, UniProt P08659); assay: inhibition of purified Photinus pyralis luciferase – biochemical, luminescence, dose response (AID 1891)
Chain of Luciferin 4-monooxygenase (P08659 whole entry): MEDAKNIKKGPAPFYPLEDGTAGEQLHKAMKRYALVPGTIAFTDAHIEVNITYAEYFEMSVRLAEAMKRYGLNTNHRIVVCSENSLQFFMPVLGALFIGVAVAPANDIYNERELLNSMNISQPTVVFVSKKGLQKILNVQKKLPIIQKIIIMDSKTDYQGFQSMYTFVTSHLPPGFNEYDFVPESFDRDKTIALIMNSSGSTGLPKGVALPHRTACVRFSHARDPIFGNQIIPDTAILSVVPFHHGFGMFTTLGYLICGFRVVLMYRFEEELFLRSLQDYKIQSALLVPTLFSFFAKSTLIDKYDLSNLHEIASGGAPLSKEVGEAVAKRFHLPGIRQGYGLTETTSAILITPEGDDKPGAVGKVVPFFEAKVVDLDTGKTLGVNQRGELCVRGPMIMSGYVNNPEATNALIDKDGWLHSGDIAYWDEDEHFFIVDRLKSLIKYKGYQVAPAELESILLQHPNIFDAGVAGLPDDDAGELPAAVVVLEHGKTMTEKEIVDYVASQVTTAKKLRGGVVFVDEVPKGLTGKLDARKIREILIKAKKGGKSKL

[34] = target: CAAX prenyl protease 2 (Saccharomyces cerevisiae S288c, UniProt Q03530); assay type: biochemical
Chain of CAAX prenyl protease 2 (Saccharomyces cerevisiae S288c, UniProt Q03530) (Q03530 whole entry): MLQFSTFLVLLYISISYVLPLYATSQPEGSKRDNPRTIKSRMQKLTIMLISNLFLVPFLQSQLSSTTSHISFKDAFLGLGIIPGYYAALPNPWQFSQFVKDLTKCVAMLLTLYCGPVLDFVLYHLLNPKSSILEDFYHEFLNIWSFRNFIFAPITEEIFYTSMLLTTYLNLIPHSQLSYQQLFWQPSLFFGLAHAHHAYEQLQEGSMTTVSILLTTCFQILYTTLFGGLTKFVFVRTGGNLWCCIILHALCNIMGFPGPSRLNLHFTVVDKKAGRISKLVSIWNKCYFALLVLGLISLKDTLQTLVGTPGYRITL

[35] = Luminescence Cell-Based Dose Confirmation HTS to Identify Inhibitors of Platelet Dense Granule Release. [Related pubchem assays: 1663 (Primary HTS), 1678 (Summary of Project)]; assay type: functional
[36] = target: CAAX prenyl protease 2 (Homo sapiens, UniProt Q9Y256); assay: inhibition of Ras-converting CAAX endoprotease – biochemical, plate reader, dry powder samples, dose response (AID 588848)
[37] = toxicity toward cultured mammalian cells – cell-based, plate reader, cherry-pick samples, cytotoxicity control, dose response (AID 504397); assay type: functional
[38] = target: T2, Phospholipase D1; assay: PLD1 purified enzyme concentration response. [Related pubchem assays (depositor defined):AID588854]; assay type: functional
[39] = target: T1, Phospholipase D2; assay: PLD2 purified enzyme concentration response. [Related pubchem assays (depositor defined):AID588854]; assay type: functional

T1 sequence (O14939 whole entry): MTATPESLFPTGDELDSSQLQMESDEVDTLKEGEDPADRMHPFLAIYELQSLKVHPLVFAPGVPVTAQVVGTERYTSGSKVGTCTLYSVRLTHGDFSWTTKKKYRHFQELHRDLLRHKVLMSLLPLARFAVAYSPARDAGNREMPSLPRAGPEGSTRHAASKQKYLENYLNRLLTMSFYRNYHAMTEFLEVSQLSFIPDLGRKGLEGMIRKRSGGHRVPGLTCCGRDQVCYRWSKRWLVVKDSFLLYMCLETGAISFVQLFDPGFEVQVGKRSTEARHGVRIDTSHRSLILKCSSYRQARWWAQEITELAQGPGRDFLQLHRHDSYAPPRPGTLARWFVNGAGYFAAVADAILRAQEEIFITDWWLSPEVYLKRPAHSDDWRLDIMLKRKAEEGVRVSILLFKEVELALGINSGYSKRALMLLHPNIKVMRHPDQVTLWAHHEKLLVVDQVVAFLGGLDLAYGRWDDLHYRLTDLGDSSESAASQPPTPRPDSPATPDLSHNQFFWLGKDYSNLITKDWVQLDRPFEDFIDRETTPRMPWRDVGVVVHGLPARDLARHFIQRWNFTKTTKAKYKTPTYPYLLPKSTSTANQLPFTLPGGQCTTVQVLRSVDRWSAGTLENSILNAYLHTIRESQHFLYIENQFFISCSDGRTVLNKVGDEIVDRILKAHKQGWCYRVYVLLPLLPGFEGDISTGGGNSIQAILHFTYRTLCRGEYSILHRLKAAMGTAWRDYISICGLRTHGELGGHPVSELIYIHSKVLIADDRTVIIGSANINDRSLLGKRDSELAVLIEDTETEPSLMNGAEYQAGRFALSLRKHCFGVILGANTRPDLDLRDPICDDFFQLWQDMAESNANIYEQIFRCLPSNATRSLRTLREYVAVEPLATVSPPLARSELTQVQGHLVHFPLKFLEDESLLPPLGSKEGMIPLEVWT

CN1CN(c2ccccc2)C2(CCN(CCNC(=O)c3ccc4ccccc4c3)CC2)C1=O
active: IC50 [1] 20 µM | IC50 [2] 2.8 µM

O=c1c(O)c(-c2ccc(O)c(O)c2)oc2cc(O)cc(O)c12 [QUERCETIN DIHYDRATE]
> 29.9 µM (not active): EC50 [6]
active: IC50 [3] 16.1 µM | IC50 [5] 0.385 µM | AC50 [7] 233 µM
> 59.6 µM (not active): IC50 [4]

COc1ccc(/C=C/c2nc3ccccc3c(=O)n2Cc2ccccc2)cc1
inactive: IC50 [8] > 80 µM | IC50 [9] > 80 µM

CCSCCc1nnc(NC(=O)Nc2cccc(C(F)(F)F)c2)s1
inactive: AC50 [12] > 100 µM | IC50 [22] > 20 µM
active: EC50 [10] 15 µM | AC50 [11] 5.02 µM | AC50 [13] 7.31 µM | AC50 [14] 23.1 µM | AC50 [15] 3.91 µM | AC50 [16] 8.99 µM | AC50 [17] 5.2 µM | IC50 [18] 2.57 µM | AC50 [19] 5.05 µM | AC50 [20] 7.84 µM | IC50 [21] 2.68 µM | AC50 [23] 5.97 µM | AC50 [24] 3.56 µM | EC50 [25] 2.16 µM | AC50 [26] 35.2 µM | AC50 [27] 4.07 µM | AC50 [28] 8.04 µM | AC50 [29] 27.4 µM | IC50 [30] 9.13 µM | AC50 [31] 6.62 µM

O=C(NCCCn1ccnc1)C1CCCN(S(=O)(=O)c2cc(Cl)ccc2Cl)C1 (centres undefined)
active: EC50 [32] 0.999 µM

O=C(COC(=O)/C=C/c1cn(-c2ccccc2)nc1-c1ccc2c(c1)OCCO2)NC1CCS(=O)(=O)C1 (centres undefined)
active: AC50 [34] 0.542 µM | AC50 [36] 17.4 µM | AC50 [37] 89.2 µM
> 112 µM (not active): EC50 [33] | EC50 [35]

O=C(NCCN1CCC2(CC1)C(=O)NCN2c1cccc(F)c1)c1cnc2ccccc2c1
active: IC50 [38] 2.8 µM | IC50 [39] 0.13 µM
